The test system of one series is human plasma protein. Nature of the series: Binding to human plasma protein (unbound fraction). The format is in vitro ADME. As for the experimental part: Binding to human plasma protein was determined. Reported are the unbound fraction (fu) for three replicates as well as the mean unbound fraction, the standard deviation and the mean % recovery (Table 8).
Series [1] concerns human hepatocytes. Put plainly: Metabolic stability in Hμrel human hepatocyte co-culture. To be noted: for relative LC/MS peak area: 0 h. The format is in vitro ADME. The procedure: The incubations were performed using 1 and 10 μM initial concentrations and sampling at 0, 1, 2, 4, 8, 24, 48, and 72 hours (h) time points. The samples were analysed using UPLC/QE-orbitrap-MS.
The subject of series [2] is human hepatocytes. Put plainly: Metabolite identification in human hepatocytes. The format is in vitro ADME. To be noted: for relative proportion of compounds identified: 5-MeO-DMT 10 μM, up to 120 minutes. The procedure:
All samples were stored at −80° C. (nominal) prior to analysis.
Appropriate blank and control samples were also analysed. […] (nominal).

A short description of series [3]: Pharmacokinetics of 5-MeO-DMT and bufotenine after inhalation. It is filed as in vivo, human.

For 5-Methoxyindole acetic acid [5-MIAA], in the series on human plasma protein, the “plasma binding (mean fraction unbound)” value was roughly 50%. In the series with human plasma protein (from glomerular filtration rate 90-120 ml/min), the “time for removal from circulation by renal clearance” value is 1 to 2 h. Further, in the series with human hepatocytes [1], the “disappearance with stromal cell controls” value was “no disappearance”. Besides, the “in vitro intrinsic clearance” value in the series on human hepatocytes [1] (1 μM, human hepatocytes) is 0.15 μl/min/million cells. For the same molecule, the remaining abundance in the series with human hepatocytes [1] (72 h, hepatocytes, 1 and 10 μM) was 75-82%. In addition, in the series with human hepatocytes [2], the “presence in subsequent assays” value is “predominant metabolite”.
With `COc1ccc2[nH]cc(CC[N+](C)(C)[O-])c2c1` [5-MeO-DMT-N-oxide], the “relative proportion of compounds identified” value (from here on “relative proportion”) in the series on human hepatocytes [2] was 1%.
For `COc1ccc2[nH]cc(CCO)c2c1` [5-methoxytryptophol, 5-Methoxyindole-3-ethanol], the “disappearance with stromal cell controls” value in the series on human hepatocytes [1] is listed as “no disappearance”. Besides, the “relative LC/MS peak area” value with human hepatocytes [1] (1 μM, hepatocytes) was 100%; in the series with human hepatocytes [1] (1 μM, stromal cells), 100%; with human hepatocytes [1] (10 μM, hepatocytes), 100%; with human hepatocytes [1] (10 μM, stromal cells), 100%. Also, the “presence in subsequent assays” value in the series on human hepatocytes [2] is listed as “repeatedly failed to detect”. In addition, in the series on human hepatocytes [2], the “relative proportion” value came out at 25%.
As to `CN(C)CCc1c[nH]c2ccc(O[C@@H]3O[C@H](C(=O)O)[C@@H](O)[C@H](O)[C@H]3O)cc12` [Bufotenine glucuronide], the “detection in the hepatocyte assay” value in the series on human hepatocytes [2] is “not detected”.
`CN(C)CCc1c[nH]c2ccc(O)cc12` [bufotenine, Bufotenine]: the “detection in human serum” value in series [3] (15 minutes after administration of 5-MeO-DMT) is listed as “In no case is it detected”. The bufotenine blood concentration in series [3] (from 15 min after 5-MeO-DMT inhalation, LLOQ) is less than 25 pg/mL. For the same molecule, the “relative proportion” value in the series on human hepatocytes [2] stood at 5%.

The values are drawn from patent US20250170099A1, “TREATMENT OF POSTNATAL DEPRESSION” (GH RESEARCH IRELAND LIMITED, priority 2022, published 2025).
